Experimental findings from US5560907A, “Whitening embellisher” (Eisai Co., Ltd., priority 1992, dated 1996) are described below.

For series [1], the system named is B16 melanoma cells derived from a mouse. The experiment in a line: Restraint of melanin production in cultured B16 melanoma cells.
Series [2] concerns tyrosinase, derived from mushroom. Kind of series: Inhibition of enzyme activity of mushroom tyrosinase. It counts as biochemical. Particulars: concentration of 0.01-0.1%.
Series [3] relates to tyrosinase in the B16 melanoma cells. The experiment in a line: Amount of tyrosinase in B16 melanoma cells by SDS-PAGE. It counts as cell-based, mouse. Particulars: culture systems added with teprenone.
A further series is described as follows: Solubility in water. It counts as physicochemical. From the text: The whitening and beautifying preparation suitable for use in a bath according to the present invention means a preparation which can be dissolved in hot water in a bathtub upon bathing to use it, and can be provided as tablets, granules, powder, liquid or the like. It can be formulated according to any process generally used.

[4] abbreviates: Mus musculus, B16, read-out: production of melanin restrained, to control.

Take `OC[C@H]1O[C@@H](Oc2ccc(O)cc2)[C@H](O)[C@@H](O)[C@@H]1O` [arbutin]: the “concentration essential for attaining the same effect of the combined use as kojic acid” value in series [1] (arbutin combined with teprenone, equals 10-30 ppm) is recorded as 1×10^-3 -3×10^-3%.
As for `CC(=O)CCC=C(C)CCC=C(C)CCC=C(C)CCC=C(C)C` [teprenone, geranylgeranylacetone], in series [2], the “action to inhibit the enzyme activity of tyrosinase” value was “did not exhibit any action to inhibit the enzyme activity”. Further, the “amount of tyrosinase in the B16 melanoma cells” value in series [3] was “decreased in proportion to the concentration of teprenone added”. In addition, the solubility in water entry in the series “Solubility in water” is recorded as “insoluble in water”. Moreover, in series [1] (setting [4]), the inhibition at 0.0001 % stood at 85%, the inhibition at 0.0002 % turned out to be 80% and the inhibition at 0.0003 % was 70%. For the same compound, the “reversibility of the melanin inhibiting action” value in series [1] (cells cultured again in a system containing no teprenone, melanin greatly increased) is “reversible inhibiting action”. In addition, the cytotoxicity entry in series [1] (sample concentrations 1×10^-4 to 3×10^-4 %) is on record as “no cytotoxicity was recognized”.
